The values that follow come from publication PMC3020970, “K70Q Adds High-Level Tenofovir Resistance to “Q151M Complex” HIV Reverse Transcriptase through the Enhanced Discrimination Mechanism” (PLoS ONE, 2011).

The EC50 is the concentration needed to bring the measured effect to its halfway point. By Kd is commonly meant the equilibrium constant for the complex coming apart. Higher therefore signals weaker binding.

Each structure is given as a SMILES string. “And” between values parts separate entries of the source, which are not always exact repeats. Identical values can stand only once. Counter-ions that a name gives are not always drawn. Like-named read-outs stand apart in the source and are kept apart here.

One assay has as its system HIV-1 NL4-3 strain (WT). As to the kind of experiment: microbe, parasite or virus in culture. Format: cell-based. The protocol:
(§1) Susceptibilities to various RT inhibitors were determined using the MAGIC-5 cells which are HeLa cells stably transfected with a β-galactosidase gene under the control of an HIV long terminal repeat promoter, and with vectors that express the CD4 receptor and the CCR5 co-receptor under the control of the CMV promoter as described previously. Briefly, MAGIC-5 cells were infected with diluted virus stock (100 blue forming units) in the presence of increasing concentrations of RT inhibitors, cultured for 48 h, fixed, and stained with X-Gal (5-bromo-4-chloro-3-indolyl-β-D-galacto-pyranoside). The stained cells were counted under a light microscope.

The test system of assay [1] is HIV-1 clinical isolate 1 (Q151Mc-containing). As to the kind of experiment: Single-cycle drug susceptibility assay (MAGIC-5 cells), clinical isolate 1. It counts as cell-based. The settings on record: Human immunodeficiency virus 1; clinical isolate 1, MAGIC-5 cells. The protocol: (§2) HIV was isolated from fresh plasma immediately after collection of clinical samples from study participants at the outpatient clinic of the AIDS Clinical Center (ACC), International Medical Center of Japan. The Institutional Review Board approved this study (IMCJ-H13-80) and a written consent was obtained from all participants.
as §1

Assay [2] has as its system HIV-1 clinical isolate 2 (Q151Mc + K70Q). As to the kind of experiment: Single-cycle drug susceptibility assay (MAGIC-5 cells), clinical isolate 2. It counts as cell-based. The settings on record: Human immunodeficiency virus 1; clinical isolate 2, MAGIC-5 cells. As for the experimental part:
as §2, §1

The test system of the next assay is HIV-1 Q151Mc/K70N. Nature of the assay: Single-cycle drug susceptibility assay (MAGIC-5 cells). Format: cell-based. As for the experimental part:
(§3) The NL4-3-based molecular clone was constructed by replacing the pol-coding region with the HIV-1 BH10 strain. […] Each molecular clone was transfected into COS-7 cells. Cells were grown for 48 h, and culture supernatants were harvested and stored at −80°C until use.
as §1

The next assay has as its system HIV-1 Q151Mc/K70R. The description is as above. Format: cell-based. The protocol:
as §3, §1

For another assay, the system named is HIV-1 K70E. The description is as above. Format: cell-based. The protocol: as §3, §1
The next assay concerns HIV-1 K70Q. The description is as above. It counts as cell-based. The settings on record: Human immunodeficiency virus 1, MAGIC-5; K70Q. As for the experimental part: as §3, §1
The test system of the next assay is HIV-1 K70T. The description is as above. It counts as cell-based. As for the experimental part:
as §3, §1

Another assay concerns HIV-1 K70N. The assay is described as above. It counts as cell-based. The protocol: as §3, §1
Another assay has as its system HIV-1 K70G. The description is as above. It counts as cell-based. The protocol:
as §3, §1

For a further assay, the system named is HIV-1 Q151Mc/K70E. Described as above. Format: cell-based. The protocol:
as §3, §1

The next assay relates to HIV-1 Q151Mc/K70G. Described as above. Format: cell-based. As for the experimental part:
as §3, §1

The next assay concerns HIV-1 Q151Mc/K70T. Described as above. It counts as cell-based. The protocol:
as §3, §1

The subject of the next assay is HIV-1 Q151Mc/K70Q. The description is as above. It counts as cell-based. The protocol:
as §3, §1

For a further assay, the system named is HIV-1 K70R. The description is as above. It counts as cell-based. The protocol:
as §3, §1

A further assay relates to HIV-1 Q151Mc. The description is as above. It counts as cell-based. The conditions noted are these: Human immunodeficiency virus 1, MAGIC-5. The protocol: as §3, §1
Another assay relates to HIV-1 WT. As to the kind of experiment: Single-cycle drug susceptibility assay (MAGIC-5 cells), recombinant WT clone. It counts as cell-based. The settings on record: Human immunodeficiency virus 1, Table S2. As for the experimental part:
as §3, §1

For another assay, the target named is T1, HIV-1 RT WT (Human immunodeficiency virus type 1 group M subtype B, UniProt P03366).
T1 construct: made in house; host or cells: Escherichia coli BL21
As to the kind of experiment: Pre-steady state kinetics of binding and incorporation. Format: biochemical. As for the experimental part:
(§4) Determination of active site concentrations in the different preparations of WT and mutant RTs were performed using pre-steady state burst experiments. […] The reactions were quenched at various times (10 ms to 5 s) by adding EDTA to a final concentration of 50 mM. The amounts of product (P18-dAMP) were quantitated and fit to the following burst equation: [drawing 1] (1) where A is the amplitude of the burst phase that represents the RT-DNA complex at the start of the reaction, k obs is the observed burst rate constant for dNTP incorporation, k ss is the steady state rate constant, and t is the reaction time. The rate constant of the linear phase (kcat) can be estimated by dividing the slope of the linear phase by the enzyme concentration. The active site concentration and template/primer binding affinity (KD-DNA) were determined by plotting the amplitude (A) against the concentration of template/primer. The data were fit using non-linear regression to a quadratic equation: [drawing 2] (2) where KD is the dissociation constant for the RT-DNA complex, and [RT] is the concentration of active polymerase molecules. Subsequent biochemical experiments were performed using corrected active site concentrations, [43].
(§5) HIV-1 RT (50 nM active sites) was pre-incubated with 50 nM T31/P18 in one syringe (Syringe A), whereas varying concentrations of dNTP and 10 mM MgCl2 were kept in another syringe (Syringe B). The solutions were rapidly mixed to initiate reactions, which were subsequently quenched at various times (5 ms to 10 s) by adding EDTA to a final concentration of 50 mM. The products from each quenched reaction were resolved, quantitated, and plotted as described above. The data were fit by non-linear regression to the burst equation (Eq 1).
(§6) To obtain the dissociation constant KD-dNTP for dNTP binding to the RT-DNA complex, the observed burst rates (kobs) were fit to the hyperbolic equation (Eq. 3) using nonlinear regression: [drawing 3] (3) where kpol is the optimal rate of dNTP incorporation.
(§7) The kinetics of TFV incorporation by the WT and mutant enzymes were carried out in a manner similar to that employed for natural dNTP substrate except the time of reactions. It was noted that the mutant enzymes required longer time to incorporate TFV compared to the WT HIV-1 RT (detailed in the Results section).

The target in a further assay is T2, HIV-1 RT Q151Mc (Human immunodeficiency virus type 1 group M subtype B, UniProt P03366, A661V/F676L/F715Y/Q750M/V674I).
T2 construct: made in house; host or cells: Escherichia coli BL21
Described as above. It counts as biochemical. The protocol: as §4, §5, §6, §7

Another assay concerns the target T3, HIV-1 RT K70Q/Q151Mc (Human immunodeficiency virus type 1 group M subtype B, UniProt P03366, A661V/F676L/F715Y/K669Q/Q750M/V674I).
T3 construct: made in house; host or cells: Escherichia coli BL21
The description is as above. The settings on record: K70Q/Q151Mc RT. Format: biochemical. As for the experimental part:
as §4, §5, §6, §7

The target in the next assay is T4, HIV-1 RT K70Q (Human immunodeficiency virus type 1 group M subtype B, UniProt P03366, K669Q).
T4 construct: made in house; host or cells: Escherichia coli BL21
Described as above. It counts as biochemical. The settings on record: K70Q RT. As for the experimental part: The reactions were quenched at various times (10 ms to 5 s) by adding EDTA to a final concentration of 50 mM. The amounts of product (P18-dAMP) were quantitated and fit to the following burst equation: [drawing 1] (1) where A is the amplitude of the burst phase that represents the RT-DNA complex at the start of the reaction, k obs is the observed burst rate constant for dNTP incorporation, k ss is the steady state rate constant, and t is the reaction time. The rate constant of the linear phase (kcat) can be estimated by dividing the slope of the linear phase by the enzyme concentration. The active site concentration and template/primer binding affinity (KD-DNA) were determined by plotting the amplitude (A) against the concentration of template/primer. The data were fit using non-linear regression to a quadratic equation: [drawing 2] (2) where KD is the dissociation constant for the RT-DNA complex, and [RT] is the concentration of active polymerase molecules. Subsequent biochemical experiments were performed using corrected active site concentrations, [43].
as §5, §6

[3] abbreviates: Human immunodeficiency virus 1, NL43, WT, MAGIC-5 cells, Table S1, read-out: EC50.

As for `Nc1nc(=O)n([C@@H]2CS[C@H](CO)O2)cc1F` [FTC, emtricitabine], the EC50 worked out at 400 ± 30 nM in the assay on HIV-1 NL4-3 strain (WT) (Human immunodeficiency virus 1, NL43, MAGIC-5); 3500 ± 120 nM in [1]; 2100 ± 170 nM in assay [2].
For `Cc1ccnc2c1NC(=O)c1cccnc1N2C1CC1` [NVP, nevirapine], the EC50 in the assay with HIV-1 NL4-3 strain (WT) (setting [3]) is 50 ± 4 nM; in assay [1] it was more than 10000 nM; in assay [2], more than 10000 nM.
As for `CC(C)OC(=O)OCOP(=O)(CO[C@H](C)Cn1cnc2c(N)ncnc21)OCOC(=O)OC(C)C` [TFV-DF, tenofovir disoproxil fumarate], the 50% effective concentration (EC50) in the assay with HIV-1 NL4-3 strain (WT) (setting [3]) was found to be 20 ± 3 nM; in the assay with HIV-1 Q151Mc/K70N (Human immunodeficiency virus 1, MAGIC-5, Q151Mc/K70N) it was 60 ± 4 nM; in the assay on HIV-1 Q151Mc/K70R (Human immunodeficiency virus 1, MAGIC-5, Q151Mc/K70R) it was 30 ± 2 nM; with HIV-1 K70E (Human immunodeficiency virus 1, MAGIC-5, K70E), 20 ± 3 nM; with HIV-1 K70Q, 30 ± 3 nM; in the assay with HIV-1 K70T (Human immunodeficiency virus 1, MAGIC-5, K70T), 20 ± 3 nM. Further, the EC50 is 20 ± 3 nM in the assay on HIV-1 K70N (Human immunodeficiency virus 1, MAGIC-5, K70N); 20 ± 3 nM in the assay on HIV-1 K70G (Human immunodeficiency virus 1, MAGIC-5, K70G); 30 ± 1 nM in the assay with HIV-1 Q151Mc/K70E (Human immunodeficiency virus 1, MAGIC-5, Q151Mc/K70E); 40 ± 2 nM in the assay with HIV-1 Q151Mc/K70G (Human immunodeficiency virus 1, MAGIC-5, Q151Mc/K70G); 50 ± 1 nM in the assay with HIV-1 Q151Mc/K70T (Human immunodeficiency virus 1, MAGIC-5, Q151Mc/K70T); 200 ± 10 nM in the assay on HIV-1 Q151Mc/K70Q (Human immunodeficiency virus 1, MAGIC-5, Q151Mc/K70Q). For the same compound, the EC50 with HIV-1 K70R (Human immunodeficiency virus 1, MAGIC-5, K70R) was determined as 20 ± 2 nM; in the assay on HIV-1 Q151Mc it was 40 ± 3 nM; in the assay with HIV-1 WT, 20 ± 4 nM; in assay [1], 40 ± 10 nM; in assay [2] it was 120 ± 20 nM. The “Fold increase in EC50 compared to HIV-1 Q151Mc” value with HIV-1 Q151Mc/K70N (Q151Mc/K70N vs Q151Mc) is recorded as “(1.5) fold”; in the assay with HIV-1 Q151Mc/K70R (Q151Mc/K70R vs Q151Mc), “(0.8) fold”; in the assay on HIV-1 Q151Mc/K70E (Q151Mc/K70E vs Q151Mc), “(0.8) fold”; in the assay with HIV-1 Q151Mc/K70G (Q151Mc/K70G vs Q151Mc), “(1) fold”; in the assay on HIV-1 Q151Mc/K70T (Q151Mc/K70T vs Q151Mc) it was “(1.3) fold”. Further, the “Fold increase in EC50 compared to HIV-1 WT” value in the assay with HIV-1 K70E (K70E vs WT), in the assay on HIV-1 K70T (K70T vs WT), in the assay on HIV-1 K70N (K70N vs WT), with HIV-1 K70G (K70G vs WT) and with HIV-1 K70R (K70R vs WT) was “(1) fold” each time. Moreover, the “Resistance (fold less susceptible than WT HIV-1)” value with HIV-1 Q151Mc/K70Q (K70Q/Q151Mc vs WT HIV-1) came to 10 fold.
For the compound `Nc1ncnc2c1ncn2[C@H]1C[C@H](O)[C@@H](COP(=O)(O)OP(=O)(O)OP(=O)(O)O)O1` [dATP], the “k pol/Kd” value at HIV-1 RT WT was 2.4e+06 M⁻¹ s⁻¹ and 2.4e+06 ± 200000 M⁻¹ s⁻¹; on HIV-1 RT Q151Mc, 3.3e+06 M⁻¹ s⁻¹ and 3.3e+06 ± 300000 M⁻¹ s⁻¹; at HIV-1 RT K70Q/Q151Mc, 2.9e+06 M⁻¹ s⁻¹ and 2.9e+06 ± 300000 M⁻¹ s⁻¹. Moreover, the k pol at HIV-1 RT WT (T31/P18, 37°C) was 6.3 s⁻¹ and 6.3 ± 0.5 s⁻¹; on HIV-1 RT Q151Mc (T31/P18, 37°C) it was 17.9 s⁻¹ and 17.9 ± 0.4 s⁻¹; on HIV-1 RT K70Q/Q151Mc (T31/P18, 37°C) it was 14.6 s⁻¹ and 14.6 ± 1.6 s⁻¹; at HIV-1 RT K70Q (T31/P18, 37°C) it was 8.4 ± 0.4 s⁻¹. For the same compound, the Kd on HIV-1 RT WT (binding to RT-DNA complex) was 2600 ± 100 nM; on HIV-1 RT Q151Mc (binding to RT-DNA complex), 5400 ± 500 nM; at HIV-1 RT K70Q/Q151Mc (binding to RT-DNA complex), 5000 ± 70 nM; on HIV-1 RT K70Q (binding to RT-DNA complex), 3800 ± 600 nM.
